Data from US20250057793A1, “BENZOIC ACID SALTS FOR TREATMENT OF NERVOUS SYSTEM INJURIES AND DISORDERS” (The United States Government as represented by the …, priority 2021, published 2025).

Legend:
[1] = system: TBI mice; assay: Synapse maturation markers (PSD-95, NR2A, GluR1) in brain of TBI mice; format: in vivo, mouse; conditions: 21 days post-injury, 50 mg/kg/day oral gavage
Description: FIGS. 1lA-11H. Restoration of PSD-95, NR2A and GluR1 in the hippocampus of TBI mice by oral administration of GTB. […] Twenty-one days after CCI injury, brain sections were double-labeled for NeuN and PSD-95 (FIG. 11A, control; FIG. 111B, CCI; FIG. 11C, CCI+GTB; FIG. 11D, CCI+Vehicle). Results represent analysis of one section of each of six mice per group. […] FIG. 11E. Actin was run as a loading control. […] Data are expressed as mean+SD. Statistical analyses were performed with one way ANOVA.

[2] = system: oligodendroglial progenitor cells (OPCs); assay: Maturation of oligodendroglial progenitor cells (OPCs) into oligodendrocytes; format: cell-based, mouse
Description: FIGS. 15A-15L: Effect of sodium benzoate (NaB) on the maturation of oligodendroglial progenitor cells (OPCs) into oligodendrocytes. OPCs were isolated from P1˜P2 neonatal mouse pups, cultured in OPC media for 4 days in vitro (DIV) followed by treatment with 100 μM NaB and sodium formate (NaFO) in the absence of FGF and PDGF.
FIG. 15A) After 18 h of 100 μM NaB treatment in serum-free condition, cells were fixed and then dual immuno-stained with MBP (red) and OPC marker NG2 (green). Nuclei were stained with DAPI (blue). FIG. 15B) Similarly, OPCs were stained with PLP (red) and A2B5 (green) under similar treatment condition. Quantification of MBP+(FIG. 15C), NG2+(FIG. 15D), PLP+(FIG. 15E), and A2B5+(FIG. 15F) cells as a percentage of total cells (DAPI+). Average 5 fields per slide, total 3 slides. Results are mean+SEM. ***p<0.001. FIG. 15G) For protein expression, cells were treated with different doses of NaB for 18 h under serum free condition and then immunoblotted with PLP and MOG. FIG. 15H) Densitometric analyses of the bands relative to beta actin were done for PLP and MOG. ^ap<0.001 vs. control PLP; ^bp<0.005 vs. control MOG. FIG. 151) Cells were treated with NaB (100 μM) and NaFO (100 μM) for 4 h under serum-free condition followed by monitoring the mRNA expression of myelin-specific genes by real-time PCR (ap<0.01 vs. control PLP; ^bp<0.01 vs. control MOG; cp<0.01 vs. control MBP; dp<0.01 vs. control CNPase). OPCs were cultured on the top of randomly-oriented polycaprolactone nanofibers (Nanofiber Solutions; Cat #Z694576) for 7 days. After that, these cells were treated with 100 μM NaB (FIG. 15J) and NaFO (K) for additional 2 days followed by immunofluorescence analysis for MBP (red) (FIG. 15J, control; FIG. 15K, NaB; FIG. 15L, NaFO). […] Representative 3D constructed images of OPCs adhered to nanofibers were also shown at the right side.

[3] = different doses of NaB, 18 h, serum free

Compound | level of PSD-95 ([1]; brain (cortex, hippocampus)) | level of GluR1 ([1]; hippocampus) | level of NR2A ([1]; hippocampus) | mRNA expression of myelin-specific genes (MBP, PLP, MOG, CNPase), real-time PCR ([2]; 100 μM, 4 h, serum-free) | differentiation/maturation of OPCs into oligodendrocytes (MBP+, PLP+, NG2+, A2B5+ cells) ([2]; 100 μM, 18 h, serum-free, absence of FGF and PDGF) | level of MOG in OPCs (immunoblot) [2, 3] | level of PLP in OPCs (immunoblot) [2, 3]
O=C(OCC(COC(=O)c1ccccc1)OC(=O)c1ccccc1)c1ccccc1 [GTB, Glyceryl Tribenzoate] | upregulated | increased | increased |  |  |  | 
O=C([O-])c1ccccc1.[Na+] [NaB, Sodium benzoate] |  |  |  | corroborated | stimulated | increased | increased
